Tests used:
Format in all cases: in vivo
Hibiscus sabdariffa [1] = assay: Seed germination and seedling growth, comparison with GA3 (Example 4)
Procedure: (§1) 100 ml stalk solutions of 0.1 μM concentration were prepared by dissolving required amounts of various test compounds (depending upon their molecular weights) in minimum amount of ethanol or acetone and adding distilled water. From this stalk solution, 0.01 μM and 0.001 μM concentrations were prepared. Calliterpenone and calliterpenone di acetate was dissolved in 2.0 ml absolute ethanol (Merc), while; calliterpenone monoacetate, isopropylideno calliterpenone and trihydroxy calliterpenone were dissolved in 2.0 ml spectral grade acetone (Ranbaxy). The respective control test solutions of distilled water of each concentration also contained equal amount of absolute ethanol or acetone. For an assay, 10 seeds were placed on Whatman filter paper (moistened with 5.0 ml of test solution in a 9.0 cm diameter petridish (in triplicate). The pteridishes were incubated for 9 days in a germinator, maintained at 25.0±1.0° C. with 90% humidity and 4 hr light/day. At the end of incubation, observations were recorded on the seedlings in terms of germination, shoot and root growth. The data on the length of shoot and root of seedlings and number of seeds germinated in different concentrations of compounds were compared with the control, which was taken as 100%. The data thus obtained were presented in Table-1.
(§2) Effect of calliterpenone and its derivatives on seed germination and seedling growth in Hibiscus sabdariffa and Sesbania cannabina were measured in the similar way as these were measured in Example-1.

Sesbania cannabina [2] = assay: as above
Procedure: as §1, §2

Vigna radiata = assay: Seed germination and seedling shoot/root growth test in petridishes; details: Vigna radiata, control = 100%
Procedure, shortened: (§3)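 Ten seeds per 9.0 cm dish on filter paper wetted with 0.1, 0.01 or 0.001 μM compound solution (ethanol or acetone cosolvent, matched in controls), in triplicate. Incubated 9 days at 25.0±1.0 °C, 90% humidity, 4 hr light/day. Germination and shoot and root length expressed relative to control taken as 100%.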

Triticum aestivum = assay: as above; details: control = 100%
Procedure, shortened: as §3

Hordeum vulgare = assay: as above; details: control = 100%
Procedure, shortened: as §3

[3] = tested on: Trigonella foenum-graecum; assay: as above; details: for Percent (%) germination of seeds in relation to control on 9th day after sowing / Percent (%) root growth of seedlings in relation to control on 9th day after sowing / Percent (%) shoot growth of seedlings in relation to control on 9th day after sowing: Trigonella foenum graecum, control = 100%
Procedure, shortened: as §3

Hibiscus sabdariffa [4] = assay: Antagonistic effect with Artemisia annua seed extract on germination and seedling growth; details: A. annua seed extract (1.3 g seeds/100 ml) alone or mixed 1:1 with 0.01 μm compound, control = 100%
Procedure: (§4) On the other hand, it is evident from Exp. 1-4 that phyllocladane diterpenenoids have produced germination and growth promoting activities on various plant species. To find out the combined effect of A. annua extract and phyllocladane diterpenoides on the germination and seedling growth of different plant species, 1:1 ratio of these compounds and A.annua extract were tested in the present experiment. For this, Hibiscus sabdariffa and Sesbania cannabina seeds were germinated in A.annua seed extract and solutions prepared by mixing this extract with 0.01 μm calliterpenone and calliterpenone mono-acetate respectively (Table 7). For the preparation of A.annua extract, 1.3 g seeds were soaked in 100 ml of distilled water for 24 hrs for testing on H. sabdariffa. Since, at this concentration, seeds of this species have shown 69% mortality which may be taken as good indicator. This effect was also recorded in S.cannabina. Since, in this case, seeds were almost half in weight as compared to the seeds of H. sabdariffa, accordingly, 0.65 g A. annua seeds were soaked in 100 ml of distilled water for 24 hrs to produce identical constraints in S. cannabina. For control, seeds were germinated in distilled water and all the observations were compared with it. […] Therefore, calliterpenone and its derivatives can be used to nullify the effects of other growth retardants/allelochemicals in the fields for their reclamation.

Sesbania cannabina [5] = assay: as above; details: A. annua seed extract (0.65 g seeds/100 ml) alone or mixed 1:1 with 0.01 μm compound, control = 100%
Procedure: as §4

CC1(C)C(=O)CC[C@@]2(C)[C@H]1CC[C@@]13C[C@H](CC[C@@H]12)[C@@](O)(CO)C3 [Calliterpenone, 16α, 17 dihydroxy phyllocladan-3 one]
Germination as compared to respective control (Hibiscus sabdariffa [1]; 0.001 μM): 133%
Germination compared with GA3 (Hibiscus sabdariffa [1]; 0.001 μM): 133%
Root growth as compared to respective control (Hibiscus sabdariffa [1]; 0.001 μM): 157%
Seed Ger. (Hibiscus sabdariffa [1]; 0.001 μM): 4
Shoot growth as compared to GA3 (100%) (Hibiscus sabdariffa [1]; 0.001 μM): 110%
Shoot growth as compared to respective control (Hibiscus sabdariffa [1]; 0.001 μM): 182%
Root Growth (mm) 3rd Day (Hibiscus sabdariffa [1]; 0.001 μM): 12.6 mm
Shoot growth 3rd Day (Hibiscus sabdariffa [1]; 0.001 μM): 27.1
Root Growth (mm) 6th Day (Hibiscus sabdariffa [1]; 0.001 μM): 28.6 mm
Shoot growth 6th Day (Hibiscus sabdariffa [1]; 0.001 μM): 61.0
Root Growth (mm) 9th Day (Hibiscus sabdariffa [1]; 0.001 μM, 9th day): 33.4 mm
Root growth as compared to GA3 taken as 100% (Hibiscus sabdariffa [1]; 0.001 μM, 9th day): 134%
Shoot growth 9th Day (Hibiscus sabdariffa [1]; 0.001 μM, 9th day): 94.6
Seed Ger. (Hibiscus sabdariffa [1]; 0.01 μM): 2
Root Growth (mm) 3rd Day (Hibiscus sabdariffa [1]; 0.01 μM): 17.0 mm
Shoot growth 3rd Day (Hibiscus sabdariffa [1]; 0.01 μM): 39.8
Root Growth (mm) 6th Day (Hibiscus sabdariffa [1]; 0.01 μM): 19.2 mm
Shoot growth 6th Day (Hibiscus sabdariffa [1]; 0.01 μM): 78.0
Root Growth (mm) 9th Day (Hibiscus sabdariffa [1]; 0.01 μM, 9th day): 25.8 mm
Shoot growth 9th Day (Hibiscus sabdariffa [1]; 0.01 μM, 9th day): 85.0
Seed Ger. (Hibiscus sabdariffa [1]; 0.1 μM): 2
Root Growth (mm) 3rd Day (Hibiscus sabdariffa [1]; 0.1 μM): 14.0 mm
Shoot growth 3rd Day (Hibiscus sabdariffa [1]; 0.1 μM): 13.6
Root Growth (mm) 6th Day (Hibiscus sabdariffa [1]; 0.1 μM): 21.5 mm
Shoot growth 6th Day (Hibiscus sabdariffa [1]; 0.1 μM): 52.5
Root Growth (mm) 9th Day (Hibiscus sabdariffa [1]; 0.1 μM, 9th day): 23.0 mm
Shoot growth 9th Day (Hibiscus sabdariffa [1]; 0.1 μM, 9th day): 72.5
Germination as compared to respective control (Sesbania cannabina [2]; 0.001 μM): 150%
Germination compared with GA3 (Sesbania cannabina [2]; 0.001 μM): 150%
Root growth as compared to respective control (Sesbania cannabina [2]; 0.001 μM): 119%
Seed Ger. (Sesbania cannabina [2]; 0.001 μM): 3
Shoot growth as compared to GA3 (100%) (Sesbania cannabina [2]; 0.001 μM): 104%
Shoot growth as compared to respective control (Sesbania cannabina [2]; 0.001 μM): 120%
Root Growth (mm) 3rd Day (Sesbania cannabina [2]; 0.001 μM): 30.0 mm
Shoot growth 3rd Day (Sesbania cannabina [2]; 0.001 μM): 17.0
Root Growth (mm) 6th Day (Sesbania cannabina [2]; 0.001 μM): 33.6 mm
Shoot growth 6th Day (Sesbania cannabina [2]; 0.001 μM): 86.2
Root Growth (mm) 9th Day (Sesbania cannabina [2]; 0.001 μM, 9th day): 43.4 mm
Root growth as compared to GA3 taken as 100% (Sesbania cannabina [2]; 0.001 μM, 9th day): 109%
Shoot growth 9th Day (Sesbania cannabina [2]; 0.001 μM, 9th day): 108.2
Seed Ger. (Sesbania cannabina [2]; 0.01 μM): 3
Root Growth (mm) 3rd Day (Sesbania cannabina [2]; 0.01 μM): 14.5 mm
Shoot growth 3rd Day (Sesbania cannabina [2]; 0.01 μM): 14.2
Root Growth (mm) 6th Day (Sesbania cannabina [2]; 0.01 μM): 21.0 mm
Shoot growth 6th Day (Sesbania cannabina [2]; 0.01 μM): 48.8
Root Growth (mm) 9th Day (Sesbania cannabina [2]; 0.01 μM, 9th day): 34.8 mm
Shoot growth 9th Day (Sesbania cannabina [2]; 0.01 μM, 9th day): 67.3
Seed Ger. (Sesbania cannabina [2]; 0.1 μM): 4
Root Growth (mm) 3rd Day (Sesbania cannabina [2]; 0.1 μM): 7.3 mm
Shoot growth 3rd Day (Sesbania cannabina [2]; 0.1 μM): 10.3
Root Growth (mm) 6th Day (Sesbania cannabina [2]; 0.1 μM): 16.0 mm
Shoot growth 6th Day (Sesbania cannabina [2]; 0.1 μM): 39.3
Root Growth (mm) 9th Day (Sesbania cannabina [2]; 0.1 μM, 9th day): 24.8 mm
Shoot growth 9th Day (Sesbania cannabina [2]; 0.1 μM, 9th day): 61.5
Percent (%) germination of seeds in relation to control on 9th day after sowing (Vigna radiata; 0.001 μM): 250%
Percent (%) root growth of seedlings in relation to control on 9th day after sowing (Vigna radiata; 0.001 μM): 87%
Percent (%) shoot growth of seedlings in relation to control on 9th day after sowing (Vigna radiata; 0.001 μM): 121%
Percent (%) germination of seeds in relation to control on 9th day after sowing (Vigna radiata; 0.01 μM): 150%
Percent (%) root growth of seedlings in relation to control on 9th day after sowing (Vigna radiata; 0.01 μM): 138%
Percent (%) shoot growth of seedlings in relation to control on 9th day after sowing (Vigna radiata; 0.01 μM): 134%
Percent (%) germination of seeds in relation to control on 9th day after sowing (Vigna radiata; 0.1 μM): 150%
Percent (%) root growth of seedlings in relation to control on 9th day after sowing (Vigna radiata; 0.1 μM): 76%
Percent (%) shoot growth of seedlings in relation to control on 9th day after sowing (Vigna radiata; 0.1 μM): 128%
Percent (%) germination of seeds in relation to control on 9th day after sowing (Triticum aestivum; 0.001 μM): 100%
Percent (%) root growth of seedlings in relation to control on 9th day after sowing (Triticum aestivum; 0.001 μM): 136%
Percent (%) shoot growth of seedlings in relation to control on 9th day after sowing (Triticum aestivum; 0.001 μM): 105%
Percent (%) germination of seeds in relation to control on 9th day after sowing (Triticum aestivum; 0.01 μM): 100%
Percent (%) root growth of seedlings in relation to control on 9th day after sowing (Triticum aestivum; 0.01 μM): 80%
Percent (%) shoot growth of seedlings in relation to control on 9th day after sowing (Triticum aestivum; 0.01 μM): 100%
Percent (%) germination of seeds in relation to control on 9th day after sowing (Triticum aestivum; 0.1 μM): 100%
Percent (%) root growth of seedlings in relation to control on 9th day after sowing (Triticum aestivum; 0.1 μM): 80%
Percent (%) shoot growth of seedlings in relation to control on 9th day after sowing (Triticum aestivum; 0.1 μM): 95%
Percent (%) germination of seeds in relation to control on 9th day after sowing (Hordeum vulgare; 0.001 μM): 100%
Percent (%) root growth of seedlings in relation to control on 9th day after sowing (Hordeum vulgare; 0.001 μM): 116%
Percent (%) shoot growth of seedlings in relation to control on 9th day after sowing (Hordeum vulgare; 0.001 μM): 118%
Percent (%) germination of seeds in relation to control on 9th day after sowing (Hordeum vulgare; 0.01 μM): 100%
Percent (%) root growth of seedlings in relation to control on 9th day after sowing (Hordeum vulgare; 0.01 μM): 116%
Percent (%) shoot growth of seedlings in relation to control on 9th day after sowing (Hordeum vulgare; 0.01 μM): 103%
Percent (%) germination of seeds in relation to control on 9th day after sowing (Hordeum vulgare; 0.1 μM): 100%
Percent (%) root growth of seedlings in relation to control on 9th day after sowing (Hordeum vulgare; 0.1 μM): 82%
Percent (%) shoot growth of seedlings in relation to control on 9th day after sowing (Hordeum vulgare; 0.1 μM): 102%
Percent (%) germination of seeds in relation to control on 9th day after sowing ([3]; 0.001 μM): 113%
Percent (%) root growth of seedlings in relation to control on 9th day after sowing ([3]; 0.001 μM): 141%
Percent (%) shoot growth of seedlings in relation to control on 9th day after sowing ([3]; 0.001 μM): 121%
Percent (%) germination of seeds in relation to control on 9th day after sowing ([3]; 0.01 μM): 125%
Percent (%) root growth of seedlings in relation to control on 9th day after sowing ([3]; 0.01 μM): 164%
Percent (%) shoot growth of seedlings in relation to control on 9th day after sowing ([3]; 0.01 μM): 130%
Percent (%) germination of seeds in relation to control on 9th day after sowing ([3]; 0.1 μM): 113%
Percent (%) root growth of seedlings in relation to control on 9th day after sowing ([3]; 0.1 μM): 150%
Percent (%) shoot growth of seedlings in relation to control on 9th day after sowing ([3]; 0.1 μM): 121%
Seed germination as compared to 100% in control ([3]; Trigonella foenum-graceum, concentration not specified): 113%
Percent (%) germination in relation to control on the 9th day after sowing (Hibiscus sabdariffa [4]): nullified the germination retarding effect
Percent (%) seedling growth, Root, in relation to control on the 9th day after sowing (Hibiscus sabdariffa [4]): 150%
Percent (%) seedling growth, Stem, in relation to control on the 9th day after sowing (Hibiscus sabdariffa [4]): 130%
Percent (%) germination in relation to control on the 9th day after sowing (Sesbania cannabina [5]): no improvement in seed germination
Percent (%) seedling growth, Root, in relation to control on the 9th day after sowing (Sesbania cannabina [5]): 225%
Percent (%) seedling growth, Stem, in relation to control on the 9th day after sowing (Sesbania cannabina [5]): 144%

Source: US6673749B1, “Use of phyllocladane diterpenoids for plant growth promotion and alleviation of growth retardant allelochemicals, and method therefor” (Council of Scientific and Industrial Research, priority 2002, dated 2004)
